Results on three compounds are retold here after publication PMC11539071, “Optimization of Biocatalytic Rhododendrol Production from Biogenic Rhododendrol Glycosides” (ACS Sustainable Chemistry & Engineering, 2024).

Assay [1] deals with T1, β-glucosidase from almonds.
T1 construct: gene emulsin; native commercial enzyme preparation from almonds (Sigma-Aldrich)
Kind of assay: initial rates by HPLC, product inhibition fit. The class given is biochemical, Prunus dulcis. To be noted: competitive; substrate betuloside at saturating level; 0.1 M phosphate buffer pH 6, 40 °C. The source says:
initial rates by HPLC, product inhibition fit on β-glucosidase from almonds

The subject of assay [2] is T1, β-glucosidase from almonds. Briefly: initial rates by HPLC of rhododendrol, Michaelis-Menten fit. It counts as biochemical, Prunus dulcis. Particulars: 0.1 M phosphate buffer pH 6, 40 °C; substrate from crude glycoside mixture containing apiosylrhododendrin. The source says:
initial rates by HPLC of rhododendrol, Michaelis-Menten fit on β-glucosidase from almonds

On to `CC(O)CCc1ccc(O)cc1` (racemic) [rhododendrol], for which the Ki (as a rule, a dissociation constant, usually derived from enzyme kinetics or from competition with a known ligand) in assay [1] came out at 7.13 ± 2.2 mM.
For `C[C@H](CCc1ccc(O)cc1)O[C@@H]1O[C@H](CO)[C@@H](O)[C@H](O)[C@H]1O` (mixture of isomers) [betuloside], the Km (usually the substrate concentration at which the rate is half of its maximum) in assay [2] amounted to 26.7 ± 3.76 mM.
In assay [1], `OC[C@H]1OC(O)[C@H](O)[C@@H](O)[C@@H]1O` (stereo partly drawn) [glucose] showed a Ki of 65.5 ± 17.2 mM.
